Reference: patent US20100222390A1, “Methods and Compositions for the Intravenous Administration of Compounds Related to Proton Pump Inhibitors” (Alevium Pharmaceuticals, Inc., priority 2004, published 2010)

Test: Stability profile at 25° C. in buffered aqueous solutions
Format: physicochemical
Settings: for Degradation Rate Constant (k): 25° C.
Description: While not intending to be bound in any way by theory, the base-catalyzed degradation is unexpected because the commercial proton pump inhibitors are stabilized in aqueous solutions by adjusting the solution to high pH. […] This should allow bolus injection of the compounds disclosed herein as opposed to the slow infusion of the drug currently in practice because the present compositions will not have the irritation associated with the high pH traditionally used with proton pump inhibitors. This should also allow greater flexibility in co-administering these compounds with drugs which are unstable or otherwise incompatible with high pH.

For `COc1ccc2c(c1)nc([S+]([O-])Cc1ncc(C)c(OC)c1C)n2S(=O)(=O)c1ccc(OCC(=O)O)cc1` (centres unmarked) [Compound 1], the shelf-life (in a neutral solution) was “over forty hours”, the Degradation Rate Constant (k) (pH 1, 0.1 M HCl) was 0.194 h⁻¹ and the Degradation Rate Constant (k) (pH 3, Citric Acid (0.1 M)/Na2HPO4 (0.2 M)) was 0.009 h⁻¹. It also gave a Degradation Rate Constant (k) (pH 5, Citric Acid (0.1 M)/Na2HPO4 (0.2 M)) of 0.008 h⁻¹, a Degradation Rate Constant (k) (pH 7, sodium phosphate (0.1-0.2 M)) of 0.002 h⁻¹ and a Degradation Rate Constant (k) (pH 7.4, sodium phosphate (0.1-0.2 M)) of 0.002 h⁻¹. The Degradation Rate Constant (k) (pH 9, sodium phosphate (0.1-0.2 M)) was 0.03 h⁻¹ and the Degradation Rate Constant (k) (pH 10, sodium phosphate (0.1-0.2 M)) was 0.298 h⁻¹.
